The conditions of data set [1]: cited from earlier work.
In a further data set the test system is liver cell. The note with it: rat, in vivo.
Setting [2] is: known carcinogenicity of chemical, Tables 1 to 3.
[3] abbreviates: known carcinogenicity of chemical, Tables 8 to 11.

Like-named read-outs stand apart in the source and are kept apart here.

Consider `CCSCCC(N)C(=O)O` (racemic) [D,L-ethionin], for which the Carcinogenicity result in data set [1] (in vivo) is “+”.
Consider `CC(O)CCl` (stereo not shown) [1-Chloro-2-propanol], for which the Carcinogenicity result in data set [1] (in vivo) is listed as “−”.
In the case of `O=[N+]([O-])c1cccc2ccccc12` [1-Nitronaphthalene], the Carcinogenicity entry in data set [1] (in vivo) was “−”.
On to `Cc1cc(N)ccc1N.O=S(=O)(O)O` [2,5-Toluenediamine sulfate], for which, in data set [1] (in vivo), the Carcinogenicity result was “−”.
As for `Cn1c(N)nc2ncc(-c3ccccc3)cc21` [2-Amino-1-methyl-6-phenylimidazo[4,5-b]-pyridine], the Carcinogenicity entry in data set [1] (in vivo) is reported as “+”.
Take `Cc1cnc2ccc3c(nc(N)n3C)c2n1` [2-Amino-3,8-dimethylimidazo[4,5-f]-quinoxaline]: the Carcinogenicity result in data set [1] (in vivo) is “+”.
On to `Nc1ccc(N)c(Cl)c1.O=S(=O)(O)O` [2-Chloro-p-phenylenediamine sulfate], for which, in data set [1] (in vivo), the Carcinogenicity entry is recorded as “−”.
Consider `Cc1ccc(N)cc1Cl` [3-Chloro-p-toluidine], for which, in data set [1] (in vivo), the Carcinogenicity entry is recorded as “−”.
`Cc1ccc2cc3c(ccc4ccccc43)c3c2c1CC3` [3-Methylcholantrene]: in data set [1] (in vivo), the Carcinogenicity result is recorded as “+”.
`CC(=O)Nc1ccc(C(=O)CCl)cc1` [4-(Chloroacetyl)acetanilide]: in data set [1] (in vivo), the Carcinogenicity entry is reported as “−”.
For the compound `CN(C)c1ccc(N=Nc2ccccc2)cc1` [4-Dimethylaminoaxobenzene], in data set [1] (in vivo), the Carcinogenicity result is “+”.
On to `Nc1cc([N+](=O)[O-])ccc1C(=O)O` [4-Nitroanthranylic acid], for which, in data set [1] (in vivo), the Carcinogenicity entry is “−”.
`Cc1c2ccccc2c(C)c2c1ccc1ccccc12` [7,12-Dimethylbenzanthracene]: the Carcinogenicity result in data set [1] (in vivo) is given as “+”.
Turning to `CC(N)=O` [Acetamide], the Carcinogenicity result in data set [1] (in vivo) was “+”.
Consider `CC(=O)Oc1ccccc1C(=O)O` [Aspirin], for which the Carcinogenicity result in data set [1] (setting [2]) and in data set [1] (setting [3]) was “−” each time.
Consider `c1ccc2cc3c(ccc4ccccc43)cc2c1` [Benz(a)anthracene], for which, in data set [1] (in vivo), the Carcinogenicity result was “+”.
Take `O=C(c1ccccc1)C(O)c1ccccc1` (stereo not shown) [Benzoin]: the Carcinogenicity result in data set [1] (in vivo) was “−”.
In the case of `O=C1CCCCCN1` [Caprolactam], the Carcinogenicity result in data set [1] (setting [2]) and in data set [1] (setting [3]) was “−” throughout.
As to `O=C(O)C1C(C(=O)O)C2(Cl)C(Cl)=C(Cl)C1(Cl)C2(Cl)Cl` (stereo not shown) [Chlorendic acid], the Carcinogenicity entry in data set [1] (in vivo) is given as “+”.
`ClC(Cl)Cl` [Chloroform]: the Carcinogenicity result in data set [1] (in vivo) is “+”.
In the case of `CC/C(=C(/CC)c1ccc(O)cc1)c1ccc(O)cc1` [Diethylstilbestrol], the Carcinogenicity result in data set [1] (setting [2]) and in data set [1] (setting [3]) was “+” each time.
Take `O=CCCCC=O` [Glutaraldehyde]: the Carcinogenicity result in data set [1] (setting [2]) and in data set [1] (setting [3]) was “−” in each case.
In the case of `Clc1c(Cl)c(Cl)c(Cl)c(Cl)c1Cl` [Hexachlorobenzene], in the data set with liver cell, the “Finding of hepatocyte hypertrpy” value was “+”.
With `CCN(N=O)C(N)=O` [N-ethy-N-nitrosourea], the Carcinogenicity result in data set [1] (in vivo) was “+”.
On to `CN(C)N=O` [N-nitrsodimethylamine], for which, in data set [1] (in vivo), the Carcinogenicity entry is “+”.
For the compound `ClC(Cl)C(Cl)(Cl)Cl` [Pentachloroethane], the Carcinogenicity result in data set [1] (in vivo) is recorded as “+”.
As to `O=C1NC(=O)C(c2ccccc2)(c2ccccc2)N1` [Phenytoin sodium], the Carcinogenicity entry in data set [1] (setting [2]) and in data set [1] (setting [3]) was “+” in each case.
`NC(=O)c1ccccc1C(N)=O` [Phthalamide]: the Carcinogenicity result in data set [1] (setting [2]) and in data set [1] (setting [3]) was “−” in each case.
Regarding `ClC(Cl)=C(Cl)Cl` [Tetrachloroethylene], the Carcinogenicity entry in data set [1] (in vivo) was “+”.
On to `CC(=N)S` [Thioacetamide], for which the Carcinogenicity result in data set [1] (in vivo) is listed as “+”.
Take `O=C(O)C(Cl)(Cl)Cl` [Trichloroacetic acid]: the Carcinogenicity entry in data set [1] (in vivo) is recorded as “+”.
Regarding `CCOC(N)=O` [Urethane], the Carcinogenicity result in data set [1] (setting [2]) and in data set [1] (setting [3]) was “+” in each case.
Take `Cl.Cl.Nc1ccc(N)cc1` [p-Phenylenediamine dihydrochloride]: the Carcinogenicity entry in data set [1] (in vivo) was “−”.
